Experimental data: article PMC9102668, “Highly Cytotoxic Osmium(II) Compounds and Their Ruthenium(II) Analogues Targeting Ovarian Carcinoma Cell Lines and Evading Cisplatin Resistance Mechanisms” (International Journal of Molecular Sciences, 2022)

How the values were obtained:
Assay type in all cases: cell-based
A2780 = experiment: MTT assay (CellTiter96), cytotoxic activity; conditions: 48 h incubation
Protocol: (§1) The biological behaviour of all substances was characterized by their cytotoxic activity against a panel of cell lines enabling an understanding of the structure-activity relationship. Cytotoxic activity was determined on ovarian carcinoma cell lines SKOV3 and A2780 as well as their Cisplatin resistant analogues (SKOV3cis and A2780cis) and the lung carcinoma cell line A549. Due to a low solubility in water, dmso is used as a solvent for the preparation of a dilution series in cell culture experiments. The toxic influence of dmso was determined earlier and experiments were carried out with 0.5% dmso in cell culture media and this concentration was used as reference sample in each MTT assay (details: Section 3). […] Resistance factors (RF) were determined for all substances (for IC50 values and RF of β-Hydroxydithiocinnamic acid esters L1–L18, see Tables S2 and S3, Supplementary part). All investigated ruthenium(II) compounds show lower RF values than Cisplatin on ovarian carcinoma cell lines, ranging from 0.2 to 1.5 (Table 3). Whereas the IC50 values on the non-resistant cell lines are in most cases higher than the IC50 of the reference substance, no increase of IC50 values is observed for the resistant cell lines. Contrary, eight ruthenium complexes show lower IC50 values on SKOV3cis than Cisplatin and four compounds on A2780cis. Thus, it can be concluded that these compounds are able to bypass the Cisplatin resistance mechanism in these cell lines pointing to a different mechanism of action.
(§2) Ovarian cancer cell lines were cultured under standard conditions (5% CO2, 37 °C, 90% humidity) in RPMI medium supplemented with 10% FCS, 100 U/mL penicillin and 100 µg/mL streptomycin (Life Technologies, Dreieich, Germany). Cisplatin (Sigma, Taufkirchen, Germany) was freshly dissolved at 1 mg/mL in 0.9% NaCl solution and diluted appropriately. New ruthenium(II) complexes and ligands were dissolved in dmso. Platinum-resistant A2780 and SKOV3 cells were established by repeated rounds of 3-day incubations with increasing amounts of Cisplatin starting with 0.1 µM. The concentration was doubled after 3 incubations, interrupted by recovery phases with normal medium. […] Determinations of IC50 values were carried out using the CellTiter96 non-radioactive proliferation assay (MTT assay, Promega, Mannheim, Germany). After seeding 5000 cells per well in a 96-well plate, cells were allowed to attach for 24 h and were incubated for 48 h with different concentrations of the substances ranging from 0 to 500 µM for Ruthenium and 0 to 1000 µM for ligand tests (0, 1, 10, 50, 100, 500, 1000 µm), for Cisplatin from 0 to 100 µM (0.1, 1, 5, 10, 50, 100 µM). Each measurement was done in triplicate and repeated 3 times. The proportion of viable cells was quantified by the MTT assay and after background subtraction relative values compared to the mean of medium controls were calculated. Non-linear regression analyses applying the Hill slope were run in GraphPad 5.0 software.

SKOV3cis = experiment: MTT assay (CellTiter96), cytotoxic activity
Protocol: as §1, §2

SKOV3 = experiment: MTT assay (CellTiter96), cytotoxic activity; conditions: 48 h incubation
Protocol: as §1, §2

A549 = experiment: MTT assay (CellTiter96), cytotoxic activity; conditions: lung carcinoma cell line, 48 h incubation
Protocol: as §1, §2

A2780cis = experiment: MTT assay (CellTiter96), cytotoxic activity
Protocol: as §1, §2

[1] = system: A2780 and SKOV3 cells and the resistant subcultures; experiment: Cell cycle distribution, PI staining and FACS; conditions: 48 h treatment, 24 h recovery
Protocol: The reduced viability under treatment, as measured by the MTT assay, can be a result of cell cycle arrest and/or increased cell death. To further evaluate the anticancer properties of the ruthenium(II) complexes we measured cell cycle distribution and cell death rates after treatment with Ru3 or Ru14. After seeding and attaching, the cells were treated for 48 h with different concentrations of substances. For cell cycle distribution measurements, a recovery phase of 24 h was added after treatment, and cells were fixed and stained with PI for the DNA content. Arresting of cells in specific cell cycle phases gives them time to resolve the DNA damage (G1 arrest) or is an initial step to apoptosis if DNA damage is too severe (G2/M arrest).
(§3) To examine cell cycle distribution and cell death rates, 30,000 cells were seeded in 12 well plates. After attaching for 24 h cells were treated with Cisplatin, Ru3 and Ru14 for 48 h at various concentrations for cell cycle and cell death analyses. For cell death analysis, immediately after treatment cells were stained with Propidium Iodid (PI) (1 µg/mL) on ice and the number of dead cells was measured using BD Canto II. For cell cycle distribution, cells recovered for 24 h after treatment. Afterwards, cells were fixed in ice-cold, 50% EtOH for 24 h at −20 °C. For DNA staining, fixed cells were incubated in PBS with 0.05% Triton-X, 0.1 µg/mL RNaseA and 50 µg/mL PI for 1 h at 4 °C in dark. DNA content was measured using BD Canto II.

A2780 cells = experiment: Cell death rate, PI staining of live cells (FACS); conditions: A2780 and SKOV3 cells, 20 µM and 30 µM, 48 h
Protocol: For cell death rate analysis, live cells were stained with PI immediately after 48 h treatment. […] Furthermore, resistant cells show much lower Cisplatin-induced cell death rates (Figure 7). […] In A2780 cells, both compounds trigger similar cell death rates in parental and Cisplatin-resistant cells. Cisplatin-resistant SKOV3 are much more sensitive to both ruthenium(II) complexes than the parental counterpart, with a median of 3.3-fold higher sensitivity.
as §3

Keratinocytes = experiment: IC50 on non-cancerous cell cultures; conditions: normal primary short-term cell culture

## [(η^6-p-cymene)Ru(1-(3-ethoxyphenyl)-3-(methylthio)-3-thioxo-prop-1-en-1-olate-O,S)] [Ru14]
A2780
  IC50: 1900 nM
SKOV3cis; Cisplatin resistant SKOV3, MTT assay, 48 h incubation
  IC50: 5100 nM
SKOV3cis; SKOV3cis vs SKOV3
  RF SKOV3 (resistance factor): 1.5
SKOV3
  IC50: 3500 nM
A549
  IC50: 2700 nM
A2780cis; A2780cis vs A2780
  RF A2780 (resistance factor): 1.5
A2780cis; Cisplatin resistant A2780, MTT assay, 48 h incubation
  IC50: 2900 nM
[1]
  effect on cell cycle distribution: no or only a minor effect on cell cycle distribution
A2780 cells
  capacity to induce cell death in vitro: high capacity to induce cell death
Keratinocytes
  IC50: > 100000 nM
